Three molecules from ChEMBL document CHEMBL1156651, “Viridamides A and B, lipodepsipeptides with antiprotozoal activity from the marine cyanobacterium Oscillatoria nigro-viridis” (J Nat Prod, 2008) can be followed below.

Where a SMILES comes first, the peptide text is derived from it. [ ]: non-standard residue; d: D form. The star is where a group is joined. Hmpa(2S,3S) = CC[C@H](C)[C@H](O)C(=O)O; NMeI = CC[C@H](C)[C@H](NC)C(=O)O; NMeV = CN[C@H](C(=O)O)C(C)C; X1 = C#CCCCC(CCCC(=O)*)OC

What is called IC50 is the concentration needed to halve the response being measured.

Common to all, as to type: functional, organism-based
Experiment [1] deals with Leishmania mexicana. Nature of the experiment: Antileishmanial activity against Leishmania mexicana promastigotes by DNA fluorescence method.
Experiment [2] deals with Trypanosoma cruzi. Nature of the experiment: Antitrypanosomal activity against Trypanosoma cruzi Tulahuen C4 in vero cells assessed as intracellular growth inhibition of trypomastigote by beta-galactosidase reporter gene assay.
Experiment [3] deals with Plasmodium falciparum. Nature of the experiment: Antimalarial activity against Plasmodium falciparum.

Take `C[C@@H]1[C@H](O)[C@@H](C)/C=C/C=C/C=C/C=C/C=C/C=C/C=C/[C@H](O[C@@H]2O[C@H](C)[C@@H](O)[C@H](N)[C@@H]2O)C[C@@H]2O[C@](O)(C[C@@H](O)C[C@@H](O)[C@H](O)CC[C@@H](O)C[C@@H](O)CC(=O)O[C@H]1C)C[C@H](O)[C@H]2C(=O)O` [AMPHOTERICIN B]: the half-maximal inhibitory concentration (IC50) in experiment [1] came out at 100 nM.

With `CC1CS(=O)(=O)CCN1/N=C/c1ccc([N+](=O)[O-])o1` (stereo not given) [NIFURTIMOX], the 50% inhibitory concentration (IC50) in experiment [2] is 10000 nM. Regarding `C#CCCCC(CCCC(=O)N(C)[C@H](C(=O)N[C@H](C(=O)N[C@H](C(=O)N(C)[C@H](C(=O)O[C@H](C(=O)N1CCC[C@H]1C(=O)OC)[C@@H](C)CC)C(C)C)C(C)C)C(C)C)[C@@H](C)CC)OC` (stereo partly drawn) [VIRIDAMIDE A] (X1-[NMeI]VV[NMeV][Hmpa(2S,3S)]P-OMe), the IC50 in experiment [2] came out at 1100 nM; in experiment [3], 5800 nM; in experiment [1], 1500 nM.
